For this experiment, the system named is incision pain in rats. The experiment in a line: Incision pain test in rats, mechanical pain threshold by Electronic Von Frey. The following applies: for increase of tenderness threshold compared with the model group: i.v., 30 min after injection; for tenderness threshold: tail vein i.v. 24 h after incision, measured 30 min after injection, model group 8.91 g. The format is in vivo, rat (male Wistar). The procedure: Example 3. Treatment Effect of the Combination of the KOR Agonist and the MOR Agonist of the Present Invention on Incision Pain in Rats
Compound 5 (prepared according to the method described in Example 1), and compound 20 (prepared according to the method described in Example 2). The compound dose was calculated on bases.
Experimental male Wistar rats were purchased from Shanghai Slac Laboratory Animal Co., Ltd. The rats weighed 140-160 g when purchased, and were fed at 5 rats/cage, under a condition of 12/12 hours light/dark cycle adjustment, a constant temperature of 23±1° C., a humidity of 50-60%, and free access to food and water. After purchase, the animals were subjected to an adaptive feeding for more than 3 days before the experiment was started.
Electronic Von Frey: UGO BASILE, type 38450.
Both compound 5 and compound 20 were formulated with normal saline.
The rats were randomly divided into the following groups according to the body weight: blank control group (n=10), model group (n=10) and drug-administered group (n=50). The drug-administered group was divided into the following groups: compound 20-0.03 mg/kg group (n=10), compound 5-0.3 mg/kg group (n=10), compound 5-0.1 mg/kg+compound 20-0.03 mg/kg group (n=10), compound 5-0.3 mg/kg+compound 20-0.03 mg/kg group (n=10), and compound 5-1 mg/kg+compound 20-0.03 mg/kg group (n=10). The model group and drug-administered group were subjected to an incision surgery. During the surgery, the rats were anesthetized with isoflurane. An incision (1 cm long) passing through the skin and fascia was made with a No. 10 surgical blade in the middle of the left hind paw. The skin was sutured with a 3-0 sterile silk surgical suture. The injured site was disinfected with antibiotic ointment and iodophor. The animals were returned to their original place to recover overnight. After 24 hours, the drug was injected through the tail vein, and the blank control group and the model group were administrated with normal saline two times with an interval of 15 minutes. The group administered with compound 20 alone was intravenously injected with the corresponding dose of compound 20 and the blank solvent for formulating compound 5. The group administered with compound 5 alone was intravenously injected with the corresponding dose of compound 5 and the blank solvent for formulating compound 20. […] The mechanical pain threshold of each group was measured by the Electronic Von Frey 30 minutes after the injection to evaluate the analgesic effect of the drug on the surgical incision pain and the intensity thereof.
The experimental data were expressed as mean±standard deviation (S.D.). […]

Each structure is given as a SMILES string. Where a SMILES comes first, the peptide text is derived from it. [ ]: non-standard residue; d: D form. The star is where a group is joined. Gly(N-(2R-Ph-propyl)) = C[C@@H](CNCC(=O)O)c1ccccc1; Piperidin1yl(4-NH2,4-COOH) = NC1(C(=O)O)CCN(*)CC1

Take `CC(C)C[C@@H](NC(=O)[C@@H](Cc1ccccc1)NC(=O)CNC[C@H](C)c1ccccc1)C(=O)N[C@H](CCCCN)C(=O)N1CCC(N)(C(=O)O)CC1` [compound 5, 4-Amino-1-((2R,5R,8R,14R)-2-(4-aminobutyl)-8-benzyl-5-isobutyl-4,7,10-trioxo-14-phenyl-3,6,9,12-tetraazapentadecan-1-oyl)piperidine-4-carboxylic acid] (H-[Gly(N-(2R-Ph-propyl))][dF][dL][dK]-{Piperidin1yl(4-NH2,4-COOH)}): under “compound 5 0.3 mg/kg alone”, the “increase of tenderness threshold compared with the model group” value turned out to be 101.1% and the tenderness threshold worked out at 17.92 g.

In the case of `CCO[C@H]1CC[C@H](NCC[C@@]2(c3ccccn3)CCOC3(CCCC3)C2)c2ccccc21` [compound 20, (1S,4S)-4-Ethoxy-N-(2-((R)-9-(pyridin-2-yl)-6-oxaspiro[4.5]decan-9-yl)ethyl)-1,2,3,4-tetrahydronaphthalen-1-amine], the “increase of tenderness threshold compared with the model group” value (compound 20 0.03 mg/kg alone) is 62.3%. For the same compound, under “compound 20 0.03 mg/kg alone, blank control 14.48 g”, the tenderness threshold is 14.46 g.
